This passage reports fraction unbound, Kd and EC50 results from patent US9175045B2, “Peptidomimetic macrocycles” (Aileron Therapeutics, Inc., priority 2008, dated 2015).

Series [1] is described as follows: Estimated free fraction in blood, calculated from Kd* with [HSA]total 700 μM. Type of series: in vitro ADME. The conditions noted are these: human; [HSA]total set at 700 μM; read-out: Free Fraction est. in blood. The method, then: The free fraction in blood is estimated per the following equation, as derived by Trainor, Expert Opin. Drug Disc., 2007, 2(1):51-64, where [HSA]total is set at 700 μM. [formula]

Series [2] deals with human serum proteins. Nature of the series: Apparent affinity to human serum proteins (Kd*) by EC50 shift analysis. Type of series: in vitro ADME. The conditions noted are these: nonlinear regression of EC50 shift with serum, n = 1, P = 700 μM for 100% serum. The source says:
The measurement of apparent Kd values for serum protein by EC50 shift analysis provides a simple and rapid means of quantifying the propensity of experimental compounds to bind HSA and other serum proteins. A linear relationship exists between the apparent EC50 in the presence of serum protein (EC′50) and the amount of serum protein added to an in vitro assay. This relationship is defined by the binding affinity of the compound for serum proteins, expressed as Kd*. This term is an experimentally determined, apparent dissociation constant that may result from the cumulative effects of multiple, experimentally indistinguishable, binding events. The form of this relationship is presented here in Eq. 0.3, and its derivation can be found in Copeland et al, Biorg. Med. Chem. Lett. 2004, 14:2309-2312. [formula] A significant proportion of serum protein binding can be ascribed to drug interactions with HSA, due to the very high concentration of this protein in serum (35-50 g/L or 530-758 μM). To calculate the Kd value for these compounds we have assumed that the shift in EC50 upon protein addition can be ascribed fully to the HSA present in the added serum, where P is 700 μM for 100% serum, P is 70 μM for 10% serum, etc. We further made the simplifying assumption that all of the compounds bind HSA with a 1:1 stoichiometry, so that the term n in Eq. (0.3) is fixed at unity. With these parameters in place we calculated the Kd* value for each stapled peptide from the changes in EC50 values with increasing serum (and serum protein) concentrations by nonlinear regression analysis of Eq. 0.3 using Mathematica 4.1 (Wolfram Research, Inc., www.wolfram.com). EC′50 values in whole blood are estimated by setting P in Eq. 0.3 to 700 μM [HSA].

Series [3] concerns Jurkat cell line. Type of series: cell-based. The conditions noted are these: 24 h. The method, then:
Jurkat cell line (Clone E6-1, ATCC catalog #TIB-152) is grown in specific serum-supplemented media (RPMI-1640, Invitrogen catalog #22400) as recommended by ATCC. A day prior to the initiation of the study, cells are split at optimal cell density (2×10^5-5×10^5 cells/ml) to assure actively dividing cells. The next day, cells are washed twice in serum-free Opti-MEM media (Invitrogen, Catalog #51985) and cells are then plated at optimal cell density (10,000 cells/well) in 50 μl Opti-MEM media or Opti-MEM supplemented with 2% or 10% human serum (Bioreclamation, catalog #HMSRM) in 96-well white tissue culture plate (Nunc, catalog #136102).
For serum free experiment, crosslinked polypeptides are diluted from 2 mM stocks (100% DMSO) in sterile water to prepare 400 μM working solutions. The crosslinked polypeptides and controls are diluted 10-fold first and then serially two-fold diluted in Opti-MEM in dosing plates to provide concentrations of between 1.2 and 40 μM. 50 μl of each dilution is then added to the appropriate wells of the test plate to achieve final concentrations of the polypeptides equal to between 0.6 to 20 μM. For studies using Opti-MEM supplemented with human serum (Bioreclamation, catalog #HMSRM), crosslinked polypeptides are diluted from 10 mM stocks (100% DMSO) in sterile water to prepare 2 mM working solutions. The crosslinked polypeptides and controls are diluted 10-fold first and then serially two-fold diluted in Opti-MEM in the presence of 2% or 10% of human serum to provide concentrations of the polypeptides equal to between 6.25 to 200 μM in dosing plates. 50 μl of each dilution is then added to the appropriate wells of the test plate to achieve final concentrations of the polypeptides equal to between 3.125 to 100 μM. Controls included wells without polypeptides containing the same concentration of DMSO as the wells containing the macrocycles, wells containing 0.1% Triton X-100 and wells containing no cells. Plates are incubated for 24 hours at 37° C. in humidified 5% CO2 atmosphere.
At the end of the incubation period, CellTiter-Glo assay is performed according to manufacturer's instructions (Promega, catalog #G7573) and luminescence is measured using Synergy HT Plate reader (BioTek). Luminescence correlates with viability. A reduction in viability reflects the ability of the test compounds to induce programmed cell death via BAX and BAK.

Molecules are shown by their SMILES. Numbered stars: 1 amine (or outer) side, 2 acyl side, 3 side chain; on linkers, the order of the positions; unused ones are H or OH. Bridge positions count the residues as written; N and C are the ends. Square brackets hold non-standard residues; d marks the D form. Peptide text beside a SMILES is read from it. ξ: configuration not given here. ξαMeNle(6-ylidene) = CC(CCCC=[*:3])(N[*:1])C(=O)[*:2]

In the case of `CC[C@H](C)[C@H](NC(C)=O)C(=O)N[C@@H](Cc1c[nH]c2ccccc12)C(=O)N[C@H](C(=O)N[C@@H](C)C(=O)N[C@@H](CCC(N)=O)C(=O)N[C@@H](C)C(=O)N[C@@H](CC(C)C)C(=O)N[C@@H](CCCNC(=N)N)C(=O)NC1(C)CCCC=CCCCC(C)(C(=O)N[C@@H](Cc2ccccc2)C(=O)N[C@@H](CC(N)=O)C(=O)N[C@@H](C)C(=O)N[C@@H](Cc2ccc(O)cc2)C(=O)N[C@@H](Cc2ccc(O)cc2)C(=O)N[C@@H](C)C(=O)N[C@@H](CCCNC(=N)N)C(=O)N[C@@H](CCCNC(=N)N)C(N)=O)NC(=O)[C@H](CC(=O)O)NC(=O)CNC(=O)[C@H]([C@@H](C)CC)NC1=O)[C@@H](C)CC` (stereo partly drawn) [Compound 12, Ac-IWIAQALR$IGD$FNAYYARR-NH2], in series [1], the fraction unbound is 0.0038. For the same compound, in series [2], the Kd stood at 2300 nM. Moreover, the EC50 in series [3] came out at 1300 nM.

For `CC[C@H](C)[C@H](NC(=O)[C@H](Cc1c[nH]c2ccccc12)NC(=O)[C@H](CCCNC(=N)N)NC(C)=O)C(=O)N[C@@H](C)C(=O)N[C@@H](CCC(N)=O)C(=O)N[C@@H](CCC(N)=O)C(=O)N[C@@H](CC(C)C)C(=O)N[C@@H](CCCNC(=N)N)C(=O)NC1(C)CCCC=CCCCC(C)(C(=O)N[C@@H](Cc2ccccc2)C(=O)N[C@@H](CC(N)=O)C(=O)N[C@@H](C)C(=O)N[C@@H](Cc2ccc(O)cc2)C(=O)N[C@@H](Cc2ccc(O)cc2)C(=O)N[C@@H](C)C(=O)N[C@@H](CCCNC(=N)N)C(=O)N[C@@H](CCCNC(=N)N)C(N)=O)NC(=O)[C@H](CC(=O)O)NC(=O)CNC(=O)[C@H]([C@@H](C)CC)NC1=O` (stereo partly drawn) [Compound 13, Ac-RWIAQQLR$IGD$FNAYYARR-NH2], in series [1], the fraction unbound was 0.0063. The Kd in series [2] stood at 3800 nM. For the same compound, the half-maximal effective concentration (EC50) in series [3] was 1500 nM.

As to `CC[C@H](C)[C@H](NC(=O)[C@H](Cc1c[nH]c2ccccc12)NC(=O)[C@H](CCCNC(=N)N)NC(C)=O)C(=O)N[C@@H](C)C(=O)N[C@@H](CCC(N)=O)C(=O)N[C@@H](C)C(=O)N[C@@H](CC(C)C)C(=O)N[C@@H](CCCNC(=N)N)C(=O)NC1(C)CCCC=CCCCC(C)(C(=O)N[C@@H](Cc2ccccc2)C(=O)N[C@@H](CC(N)=O)C(=O)N[C@@H](C)C(=O)N[C@@H](Cc2ccc(O)cc2)C(=O)N[C@@H](Cc2ccc(O)cc2)C(=O)N[C@@H](C)C(=O)N[C@@H](CCCNC(=N)N)C(=O)N[C@@H](CCCNC(=N)N)C(N)=O)NC(=O)[C@H](CC(N)=O)NC(=O)CNC(=O)[C@H]([C@@H](C)CC)NC1=O` (stereo partly drawn) [Compound 15, Ac-RWIAQALR$1GN$FNAYYARR-NH2], the fraction unbound in series [1] is 0.0084. In addition, the Kd in series [2] turned out to be 5100 nM. Also, the EC50 in series [3] was 900 nM.

Regarding `CC[C@H](C)[C@H](NC(C)=O)C(=O)N[C@@H](Cc1c[nH]c2ccccc12)C(=O)N[C@H](C(=O)N[C@@H](C)C(=O)N[C@@H](CCC(N)=O)C(=O)N[C@@H](C)C(=O)N[C@@H](CC(C)C)C(=O)N[C@@H](CCCNC(=N)N)C(=O)NC1(C)CCCC=CCCCC(C)(C(=O)N[C@@H](Cc2ccccc2)C(=O)N[C@@H](CC(N)=O)C(=O)N[C@@H](C)C(=O)N[C@@H](Cc2ccc(O)cc2)C(=O)N[C@@H](Cc2ccc(O)cc2)C(=O)N[C@@H](C)C(=O)N[C@@H](CCCNC(=N)N)C(=O)N[C@@H](CCCNC(=N)N)C(N)=O)NC(=O)[C@H](CC(N)=O)NC(=O)CNC(=O)[C@H]([C@@H](C)CC)NC1=O)[C@@H](C)CC` (stereo partly drawn) [Compound 16, Ac-IWIAQALR$IGN$FNAYYARR-NH2], the fraction unbound in series [1] is 0.0058. For the same compound, in series [2], the Kd was found to be 3500 nM. Also, the EC50 in series [3] was found to be 500 nM.

In the case of `CC[C@H](C)[C@H](NC(=O)[C@H](CCCNC(=N)N)NC(=O)[C@H](CCCNC(=N)N)NC(=O)[C@H](CCCNC(=N)N)NC(=O)[C@H](CC(C)C)NC(=O)[C@H](C)NC(C)=O)C(=O)NC1(C)CCCC=CCCCC(C)(C(=O)N[C@@H](Cc2c[nH]cn2)C(=O)N[C@@H](Cc2c[nH]cn2)C(=O)N[C@@H](CO)C(=O)N[C@H](C(N)=O)[C@@H](C)O)NC(=O)[C@H](C)NC(=O)[C@H](CS)NC(=O)[C@H](CC(C)C)NC1=O` (stereo partly drawn) [Compound 19, Ac- ALRRRI$LCA$HHST-NH2] (Ac-ALRRRI[ξαMeNle(6-ylidene)]LCA[ξαMeNle(6-ylidene)]HHST-NH2; staple 7-11), in series [1], the fraction unbound is 0.001. Also, the Kd in series [2] was 600 nM. Further, the EC50 in series [3] is 2400 nM.

A word on the EC50: it is the concentration at which the effect is half-maximal.
